The record followed here is patent publication US20260028321A1, “1,3,4-OXADIAZOLE DERIVATIVE COMPOUNDS AS HISTONE DEACETYLASE 6 INHIBITOR, AND USES THEREOF” (CHONG KUN DANG PHARMACEUTICAL CORP., priority 2022, published 2026).

Some results are limits rather than exact numbers.

One assay addresses HDAC6 human recombinant (Homo sapiens (Human), UniProt Q9UBN7). The experiment in a line: HDAC6 enzyme activity inhibition assay (fluorimetric). The assay is classed as biochemical. The conditions noted are these: test substance 0.1-1000 nM; 37° C. 60 minutes, developer 30 minutes; fluorescence Ex 390, Em 460. Here is the method: (§1) The HDAC enzyme inhibition ability of the test substance was measured using the HDAC1 Fluorimetric Drug Discovery Assay Kit (Enzo life sciences: BML-AK511) and the HDAC6 human recombinant (Calbiochem: 382180). In the HDAC1 assay, the test substance was treated at concentrations of 100, 1000, and 10000 nM, and in the HDAC6 assay, the test substance was treated at concentrations of 0.1, 1, 10, 100, and 1000 nM. After sample treatment, the samples were reacted at 37° C. for 60 minutes, followed by reaction at 37° C. for 30 minutes by treatment with a developer, and fluorescence intensities (Ex 390, Em 460) thereof were measured using FlexStatin3 (Molecular device).

In the next assay the target is HDAC1 (Homo sapiens (Human), UniProt Q13547). As to the kind of experiment: HDAC1 enzyme activity inhibition assay (HDAC1 Fluorimetric Drug Discovery Assay Kit). The assay is classed as biochemical. The conditions noted are these: test substance 100, 1000, 10000 nM; 37° C. 60 minutes, developer 30 minutes; fluorescence Ex 390, Em 460. Here is the method: as §1
Chain of HDAC1 (Q13547 whole entry): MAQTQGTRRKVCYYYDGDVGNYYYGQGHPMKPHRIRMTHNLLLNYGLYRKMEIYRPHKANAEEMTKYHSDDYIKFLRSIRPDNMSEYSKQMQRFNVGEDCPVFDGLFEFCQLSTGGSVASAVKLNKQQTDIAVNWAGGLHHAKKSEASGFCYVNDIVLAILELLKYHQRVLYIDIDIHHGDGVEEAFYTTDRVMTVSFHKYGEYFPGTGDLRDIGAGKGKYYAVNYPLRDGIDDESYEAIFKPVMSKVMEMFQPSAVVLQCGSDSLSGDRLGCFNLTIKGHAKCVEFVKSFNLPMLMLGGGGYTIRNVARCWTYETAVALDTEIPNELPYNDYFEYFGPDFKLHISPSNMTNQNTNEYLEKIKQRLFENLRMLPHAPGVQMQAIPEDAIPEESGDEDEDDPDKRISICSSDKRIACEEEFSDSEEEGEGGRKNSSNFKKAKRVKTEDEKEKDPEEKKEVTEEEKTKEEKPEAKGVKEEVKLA

Chain of HDAC6 human recombinant (Q9UBN7 whole entry): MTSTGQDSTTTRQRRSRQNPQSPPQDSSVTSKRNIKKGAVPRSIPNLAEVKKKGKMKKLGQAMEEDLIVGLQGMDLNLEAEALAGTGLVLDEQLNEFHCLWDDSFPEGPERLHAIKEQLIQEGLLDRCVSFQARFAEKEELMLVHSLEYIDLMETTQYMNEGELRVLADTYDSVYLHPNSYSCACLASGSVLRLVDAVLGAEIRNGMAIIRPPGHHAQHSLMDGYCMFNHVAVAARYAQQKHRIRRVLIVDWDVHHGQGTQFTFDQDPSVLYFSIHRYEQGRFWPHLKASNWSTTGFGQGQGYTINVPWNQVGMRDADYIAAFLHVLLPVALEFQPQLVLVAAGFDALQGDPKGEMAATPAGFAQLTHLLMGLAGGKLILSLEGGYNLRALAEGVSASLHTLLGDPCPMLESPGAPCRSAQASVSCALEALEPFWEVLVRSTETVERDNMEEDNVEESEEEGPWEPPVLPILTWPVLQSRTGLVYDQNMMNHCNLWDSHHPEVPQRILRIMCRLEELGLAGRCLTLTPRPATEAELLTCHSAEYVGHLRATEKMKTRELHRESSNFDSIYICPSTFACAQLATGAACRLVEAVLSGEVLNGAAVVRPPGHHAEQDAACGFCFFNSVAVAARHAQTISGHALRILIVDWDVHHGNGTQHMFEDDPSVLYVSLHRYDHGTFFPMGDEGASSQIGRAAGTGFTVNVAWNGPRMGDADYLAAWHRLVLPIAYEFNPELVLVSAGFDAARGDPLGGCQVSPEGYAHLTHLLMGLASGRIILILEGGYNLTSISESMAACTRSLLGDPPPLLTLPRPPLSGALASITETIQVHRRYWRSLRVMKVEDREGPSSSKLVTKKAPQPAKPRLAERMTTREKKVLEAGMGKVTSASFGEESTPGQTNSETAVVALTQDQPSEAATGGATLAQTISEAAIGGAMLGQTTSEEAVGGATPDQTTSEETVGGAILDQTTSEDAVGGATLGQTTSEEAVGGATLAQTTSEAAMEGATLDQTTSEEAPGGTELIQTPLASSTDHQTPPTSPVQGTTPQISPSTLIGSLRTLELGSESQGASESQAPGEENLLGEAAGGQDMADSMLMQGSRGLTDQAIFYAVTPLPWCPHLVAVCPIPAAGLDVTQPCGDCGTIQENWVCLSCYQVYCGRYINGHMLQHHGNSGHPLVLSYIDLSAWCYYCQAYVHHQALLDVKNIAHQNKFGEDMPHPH

For orientation: IC50 means the concentration at which inhibition is half-maximal. For the compound `O=c1c(N2CCOCC2)c(N(Cc2ccc(-c3nnc(C(F)(F)F)o3)cc2)c2ccccc2)c1=O` [Compound 24, 3-morpholino-4-[N-[[4-[5-(trifluoromethyl)-1,3,4-oxadiazol-2-yl]phenyl]methyl]anilino]cyclobut-3-ene-1,2-dione], the figures for the IC50 on HDAC6 human recombinant and on HDAC1 were 161 nM and over 10000 nM, respectively.
